The series can be described thus: solvent given as SMILES.

Consider `CC(C)(C)C1Nc2c(Br)cc(Br)cc2C(=O)N1Cc1ccccc1` (centres undefined), for which the absorption maximum (in CC#N) was 360 nm; the absorption maximum (in CCCCCCCCCCCCCCCC) turned out to be 351 nm; the absorption maximum (in CO) worked out at 368 nm; the absorption maximum (in ClC(Cl)Cl) worked out at 359 nm; the absorption maximum (in c1ccccc1) was found to be 356 nm.

For `COc1ccc(/C=C(\C)c2nc3ccccc3o2)cc1`, the absorption maximum (in C1CCCCC1) came out at 320 nm and the absorption maximum (in CO) worked out at 325 nm.

Take `O=C1c2ccccc2C(=O)N1c1ccc(Cn2cncn2)cc1`: the absorption maximum was determined as 293 nm (in C1CCOC1); 284 nm (in C1COCCO1); 315 nm (in CC#N); 304 nm (in CC(C)=O); 306 nm (in CC(C)O); 278 nm (in CCCCCC). The compound also had an absorption maximum (in CCCCO) of 302 nm; an absorption maximum (in CCO) of 308 nm; an absorption maximum (in CCOC(C)=O) of 290 nm; an absorption maximum (in CCOCC) of 289 nm; an absorption maximum (in CN(C)C=O) of 314 nm; an absorption maximum (in CO) of 312 nm. Moreover, the absorption maximum runs as follows: (in CS(C)=O) 320 nm; (in Cc1ccccc1) 283 nm; (in ClCCl) 294 nm.

For the setting “in C1CCCCC1”, `COc1ccc(OC)cc1` showed an absorption maximum of 286.2 nm.

In the case of `c1ccc(N(c2ccccc2)c2ccc(-c3cncs3)cc2)cc1`, where the note is “in CO”, the absorption maximum is given as 346 nm.

`Cc1cc(C)c(B(c2ccc(C#Cc3cc4ccc5cc(C#Cc6ccc(B(c7c(C)cc(C)cc7C)c7c(C)cc(C)cc7C)cc6)cc6ccc(c3)c4c56)cc2)c2c(C)cc(C)cc2C)c(C)c1` came in with an absorption maximum (in Cc1ccccc1) of 414 nm.

With `CC(C)(C)c1cc2ccc3cccc4c3c2c(c1)c1nc2c3cc(C(C)(C)C)cc5ccc6cccc(c(=O)n2c41)c6c53`, the absorption maximum amounted to 395 nm (in C1CCOC1); 389 nm (in CC#N); 391 nm (in CC(C)=O); 393 nm (in CCCCCC); 390 nm (in CCO); 390 nm (in CCOC(C)=O). Also, the absorption maximum is, setting by setting: (in CO) 382 nm; (in CS(C)=O) 391 nm; (in Cc1ccc(C)cc1) 392 nm; (in ClC(Cl)(Cl)Cl) 395 nm; (in ClC(Cl)Cl) 395 nm; (in c1ccccc1) 395 nm.

Take `COc1ccc2c3cccc4c(OC)ccc(c5cccc1c52)c43`: the absorption maximum is 458 nm (in C1CCOC1); 459 nm (in Cc1ccccc1); 460 nm (in ClC(Cl)(Cl)Cl); 459 nm (in ClC(Cl)Cl); 459 nm (in ClCCl); 463 nm (in c1ccncc1).

With `COc1ccccc1C1=C2C=CC(=[N+](C)C)C=C2[Si](C)(C)c2cc(N(C)C)ccc21`, under “in O”, the absorption maximum is reported as 649 nm.

As to `C[Si]1(C)c2ccc(C#Cc3ccccc3)cc2C=Cc2cc(C#Cc3ccccc3)ccc21`, the absorption maximum (in ClCCl) is 346 nm.

`CC(C)[Si](C#Cc1ccc(C#C[Si](C(C)C)(C(C)C)C(C)C)c2nc3c(ccc4ccccc43)nc12)(C(C)C)C(C)C`: where the note is “in CCCCCC”, the absorption maximum worked out at 411 nm.

With `CCCCN1C(=O)C(=CC=C2N(CCCC)c3ccccc3N2CCCC)C(=O)N(CCCC)C1=S`, the absorption maximum by setting is: (in CCCCCC) 470 nm; (in CCO) 424 nm; (in CN(C)C=O) 431 nm; (in Cc1ccccc1) 468 nm; (in ClC(Cl)Cl) 461 nm; (in ClCCl) 456 nm.

With `CC(C)(C)c1ccc2c(c1)c1cc(C(C)(C)C)ccc1n2-c1ccc(N(c2ccc(-c3ccc(N(c4ccc(-n5c6ccc(C(C)(C)C)cc6c6cc(C(C)(C)C)ccc65)cc4)c4ccc(-n5c6ccc(C(C)(C)C)cc6c6cc(C(C)(C)C)ccc65)cc4)cc3)cc2)c2ccc(-n3c4ccc(C(C)(C)C)cc4c4cc(C(C)(C)C)ccc43)cc2)cc1`, the absorption maximum (in ClCCl) is 349 nm.

Regarding `COc1ccc(C2=C(c3ccc(OC)cc3)C(C)(C)c3cc(-c4ccccc4)ccc32)cc1`, the absorption maximum (in C1CCCCC1) came to 305 nm.

Turning to `Nc1ccc2c(c1)NC(=O)CC(=O)N2`, for the setting “in CS(C)=O”, the absorption maximum was 318 nm.

On to `CN(C)C1=Nc2cccc3cccc1c23`, for which, for the setting “in CC#N”, the absorption maximum is on record as 427 nm.

Turning to `Fc1c(F)c(-n2c3ccccc3c3ccccc32)c(F)c(F)c1/C=C/c1ccc(C(=C(c2ccccc2)c2ccccc2)c2ccccc2)cc1`, the absorption maximum (in Cc1ccccc1) is given as 367 nm.

In turn, `Cc1c(C)c(-c2cccnc2)c(C)c(C)c1B(c1c(C)c(C)c(-c2cccnc2)c(C)c1C)c1c(C)c(C)c(-c2cccnc2)c(C)c1C` came in with an absorption maximum (in ClCCl) of 330 nm.

`CC1(C)Nc2cc3nc4cc(Cl)c(Cl)cc4nc3cc2N1` displayed an absorption maximum (in CCO) of 471 nm.

Consider `O=c1c2cc(F)c(N3CCOCC3)cc2sc2cc(N3CCOCC3)c(F)cc12`, for which, under “in CCO”, the absorption maximum was 361 nm.

Take `CCCCCCN1C(=O)c2cccc3c(-c4cc5ccccc5s4)ccc(c23)C1=O`: the absorption maximum (in ClC(Cl)Cl) is 378 nm.

With `COC(=O)C(Cc1ccc2oc(-c3ccncc3)nc2c1)NC(=O)OC(C)(C)C` (centres undefined), the absorption maximum is reported as 307.12 nm (in CC1CCCCC1), 302.86 nm (in CC#N) and 306.08 nm (in CO).

`c1csc(-c2ccc(-c3cccs3)c3nsnc23)c1`: the absorption maximum (in ClC(Cl)Cl) was found to be 445 nm.

With `c1ccc(-c2ncc3ccccn23)cc1`, the absorption maximum (in ClC(Cl)Cl) amounted to 317 nm.

With `CCCCCCCCCCCCCCCCCCN1C(=O)c2ccc3c4ccc5c6c(ccc(c7ccc(c2c37)C1=O)c64)C(=O)N(CCCCCCCCCCCCCCCCCC)C5=O`, the absorption maximum (in CN(C)C=O) was 525 nm.

`CC(=O)O[B-]1(OC(C)=O)OC(/C=C/c2ccc(C)cc2)=CC(/C=C/c2ccc(C)cc2)=[O+]1`: the absorption maximum reads like this: (in C1CCOC1) 434 nm; (in CC#N) 434 nm; (in CC(C)=O) 434 nm; (in CS(C)=O) 442 nm; (in Cc1ccccc1) 436 nm; (in ClC(Cl)Cl) 440 nm. Where the note is “in ClCCl”, this compound registered an absorption maximum of 440 nm.

For `CC(C)[Si](C#Cc1c2ccccc2c(C#C[Si](C(C)C)(C(C)C)C(C)C)c2nc3c(nc12)C1c2ccccc2C3c2ccccc21)(C(C)C)C(C)C`, the absorption maximum (in CCCCCC) is on record as 445 nm.

`c1ccc2cc(-c3c4ccccc4c(-c4ccc(-n5c6ccccc6c6ccccc65)cc4)c4ccccc34)ccc2c1` came in with an absorption maximum (in ClCCl) of 377 nm.

Under “in CS(C)=O”, `Cc1cc2c(cc1C)NC(=O)CC(=O)N2` had an absorption maximum of 297 nm.

For `c1ccc(C2=C(c3ccccc3)c3cccc4c3c(cc3nc5cc(-c6ccccc6)c(-c6ccccc6)cc5nc34)O2)cc1`, the absorption maximum (in ClCCl) came out at 507 nm.

`CC1(C)C(=O)C=Cc2ccc(O)cc21`: the absorption maximum (in O) was determined as 341 nm.

Consider `CC1=[N+]2C(=C(c3ccc(C=O)cc3)c3ccc(C)n3[B-]2(F)F)C=C1c1cc2n(c1)[B-](F)(F)[N+]1=CC=CC1=C2c1c(C)cc(C)cc1C`, for which the absorption maximum by setting is: (in C1CCCCC1) 604.5 nm; (in CCOC(C)=O) 604.5 nm.

As for `CN(C)c1ccc(/C=C/c2ccc([N+](=O)[O-])c(O)c2)cc1`, the absorption maximum (in C1COCCO1) is 448 nm.

On to `CN1c2cc3nc4cc(Cl)c(Cl)cc4nc3cc2N(C)C1(C)C`, for which the absorption maximum (in CCO) is given as 471 nm.

Where the note is “in Cc1ccccc1”, `c1ccc2c(c1)Oc1ccccc1N2c1ccc2c(c1)c1ccccc1n1ccnc21` returned an absorption maximum of 376 nm.

For the setting “in CC#N”, `Fc1nc(F)c(F)c(C#Cc2nccnc2C#Cc2c(F)c(F)nc(F)c2F)c1F` yielded an absorption maximum of 305 nm.

Consider `CC1=N/C(=C\c2ccc(C#N)c(N(C)C)c2)C(=O)N1C`, for which the absorption maximum (in C1CCOC1) is recorded as 368 nm, the absorption maximum (in CC#N) was found to be 369 nm and the absorption maximum (in CCCCCC) amounted to 362 nm.

For the compound `CN1CCN(CCCN2c3ccccc3Sc3ccc(C(F)(F)F)cc32)CC1`, the absorption maximum was 310 nm (in CC#N), 310 nm (in CO) and 308 nm (in O).

On to `CC[n+]1c(-c2ccccc2)c2cc(NC(=O)N[C@H]3C[C@@H]([NH3+])[C@H](O)[C@@H](O)[C@@H]3O)ccc2c2ccc(NC(=O)N[C@@H]3C[C@H]([NH3+])[C@@H](O)[C@@H](O)[C@H]3O)cc21`, for which the absorption maximum (in O) is recorded as 438 nm.

The compound `N#CSc1ccc2n1[B-](F)(F)[N+]1=C(N3CCOCC3)C=CC1=C2c1ccccc1` displayed an absorption maximum (in CC#N) of 452 nm; an absorption maximum (in CCCCCC) of 492 nm; an absorption maximum (in CCOC(C)=O) of 464 nm; an absorption maximum (in CO) of 458 nm; an absorption maximum (in ClCCl) of 468 nm.

Where the note is “in ClCCl”, `CCCCN(CCCC)c1ccc2c#cc3cc4c#cc5ccc(C(F)(F)F)cc5c#cc#cc5cc(N(CCCC)CCCC)ccc5c#cc4cc3c#cc3ccc(C(F)(F)F)cc3c#cc#cc2c1` registered an absorption maximum of 472 nm.

Compound `O=S(=O)([O-])c1ccccc1/C=C/c1ccc(-c2nnc(-c3ccc(/C=C/c4ccccc4S(=O)(=O)[O-])cc3)o2)cc1` yielded an absorption maximum (in C1CCOC1) of 346 nm, an absorption maximum (in CC(C)=O) of 344 nm and an absorption maximum (in CN(C)C=O) of 348 nm.

Turning to `CCCCN(CCCC)c1ccc(/C=C/c2ccc3nc(/C=C/c4ccc(N(C)C)cc4)c(=O)n(CCC)c3c2)cc1`, the absorption maximum was 481 nm (in C1COCCO1), 488 nm (in CC#N) and 494 nm (in ClCCl).

Compound `c1ccc(N(c2ccccc2)c2ccc(-c3ccc4c(c3)C3(c5cc(-c6ccc(N(c7ccccc7)c7ccccc7)cc6)ccc5O4)c4ccccc4-c4ccccc43)cc2)cc1` gave an absorption maximum (in ClCCl) of 345 nm.

With `CC1(C)C(/C=C/c2cc3ccc(O)cc3oc2=O)=[N+](CCCS(=O)(=O)[O-])c2ccc(S(=O)(=O)O)cc21`, the absorption maximum reads like this: (in CCO) 630 nm; (in CS(C)=O) 485 nm; (in O) 573 nm.

Take `CC(C)c1cccc(C(C)C)c1N1C(=O)c2ccc3c4c(-c5ccc(C(=O)O)cc5)c5ccc6c7c(cc8c9cc(C(=O)O)ccc9c(c9ccc(c2c39)C1=O)c4c8c57)C(=O)N(c1c(C(C)C)cccc1C(C)C)C6=O`: under “in ClCCl”, the absorption maximum stood at 607 nm.

The values are drawn from the Deep4Chem optical property database.
